Here are results for one compound from paper PMC3586729 (Nature Communications, 2013).

The target of this assay is T1, F. pringlei R884G mutant C3 PEPC (Flaveria pringlei, UniProt Q01647, R885G).
T1 sequence (Q01647 1-967 R885G): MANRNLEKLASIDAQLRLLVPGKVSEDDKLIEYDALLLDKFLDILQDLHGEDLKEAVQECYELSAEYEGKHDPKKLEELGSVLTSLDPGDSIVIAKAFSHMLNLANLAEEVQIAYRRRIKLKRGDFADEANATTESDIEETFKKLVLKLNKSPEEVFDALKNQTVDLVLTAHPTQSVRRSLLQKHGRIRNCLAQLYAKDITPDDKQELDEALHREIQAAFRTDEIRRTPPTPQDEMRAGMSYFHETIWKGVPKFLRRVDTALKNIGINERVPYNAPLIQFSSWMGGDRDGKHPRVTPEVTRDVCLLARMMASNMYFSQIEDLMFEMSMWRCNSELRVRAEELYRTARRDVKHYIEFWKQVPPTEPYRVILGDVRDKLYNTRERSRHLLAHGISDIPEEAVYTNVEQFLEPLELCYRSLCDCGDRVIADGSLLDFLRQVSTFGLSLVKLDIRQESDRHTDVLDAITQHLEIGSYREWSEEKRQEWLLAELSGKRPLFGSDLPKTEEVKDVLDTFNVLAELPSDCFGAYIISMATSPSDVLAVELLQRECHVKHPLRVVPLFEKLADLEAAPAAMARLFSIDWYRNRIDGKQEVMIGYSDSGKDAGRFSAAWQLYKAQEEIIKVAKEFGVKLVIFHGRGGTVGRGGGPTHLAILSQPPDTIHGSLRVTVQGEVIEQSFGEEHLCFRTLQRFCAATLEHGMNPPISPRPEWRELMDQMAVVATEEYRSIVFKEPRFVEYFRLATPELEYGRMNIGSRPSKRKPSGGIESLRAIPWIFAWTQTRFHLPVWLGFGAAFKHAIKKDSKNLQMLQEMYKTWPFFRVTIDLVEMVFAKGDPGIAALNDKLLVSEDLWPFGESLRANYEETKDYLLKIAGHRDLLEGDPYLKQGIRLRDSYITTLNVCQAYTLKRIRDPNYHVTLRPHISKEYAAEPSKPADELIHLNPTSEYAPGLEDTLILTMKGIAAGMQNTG
Format: biochemical. Particulars: C3 PEPC R884G versus wild-type C3 PEPC from F. pringlei.

On to `O=C(O)CC(O)C(=O)O` (stereo not shown) [malate], for which the “malate tolerance of the engineered enzyme increased by a factor” value is ~ 3.
